Assay results taken from patent publication US8575091B1, “Amylin analogues and pharmaceutical compositions thereof” (Novo Nordisk A/S, priority 2012, dated 2013).
Numbered stars: 1 amine (or outer) side, 2 acyl side, 3 side chain; on linkers, the order of the positions; unused ones are H or OH. Bridge positions count the residues as written; N and C are the ends. Side chains are listed from the residue outwards. Peptide text beside a SMILES is read from it. * marks the point of attachment. C20 diacid = O=C(O)CCCCCCCCCCCCCCCCCCC(=O)*; γGlu = O=C(O)[C@H](CCC(=O)[*:2])N[*:1]

Key:
[1] = target: T1, human amylin receptor (amylin 3(a) receptor: human calcitonin receptor + RAMP-3) (Homo sapiens, UniProt O60896+P30988); experiment: Assay (II)a functional assay, human amylin receptor (CRE luciferase, BHK cells); format: cell-based
T1 construct: expressed in transfected cells
T1 sequence (P30988 25-474): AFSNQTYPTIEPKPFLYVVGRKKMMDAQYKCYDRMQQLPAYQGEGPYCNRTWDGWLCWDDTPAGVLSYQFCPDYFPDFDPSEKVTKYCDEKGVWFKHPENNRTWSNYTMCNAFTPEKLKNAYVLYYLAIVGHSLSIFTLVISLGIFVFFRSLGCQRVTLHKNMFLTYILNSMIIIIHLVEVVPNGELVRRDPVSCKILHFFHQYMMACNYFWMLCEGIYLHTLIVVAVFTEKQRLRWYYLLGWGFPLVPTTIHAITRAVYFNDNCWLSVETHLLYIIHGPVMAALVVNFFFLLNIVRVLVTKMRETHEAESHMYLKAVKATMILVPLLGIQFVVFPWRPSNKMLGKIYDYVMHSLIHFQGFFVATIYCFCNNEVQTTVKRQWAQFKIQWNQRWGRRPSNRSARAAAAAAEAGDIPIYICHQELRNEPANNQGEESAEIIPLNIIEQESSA
T1 sequence (O60896 24-148 partner): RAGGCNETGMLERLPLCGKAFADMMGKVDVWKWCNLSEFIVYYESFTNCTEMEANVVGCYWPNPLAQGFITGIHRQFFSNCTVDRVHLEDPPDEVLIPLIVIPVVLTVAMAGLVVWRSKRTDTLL

[2] = target: T2, human amylin receptor (Homo sapiens, UniProt O60896+P30988); experiment: Assay (V) binding to the human amylin receptor (SPA, 125I-rat amylin); settings: for Ratio hCT/hAmylin binding: human binding ratio, included for comparison
T2 construct: expressed in transfected cells
T2 sequence (P30988 25-474): T1 sequence (P30988 25-474)
T2 sequence (O60896 24-148 partner): T1 sequence (O60896 24-148 partner)
Method in brief: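 IC50, taken as receptor affinity, came from one-site binding competition analysis of scintillation proximity counts. Amylin 3(a)/CRE-luc cell membranes (35 ng/μL final) were mixed with SPA beads (0.05 mg/well) in 50 mM Hepes pH 7.4 containing CaCl2, MgCl2, 0.1% OA and 0.02% Tween20.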

[3] = target: T3, human calcitonin receptor (Homo sapiens, UniProt P30988); experiment: Assay (VII) binding to the human calcitonin receptor (SPA, 125I-Calcitonin); settings: read-out: hCTR bind IC50;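 further: cell membranes coupled to SPA beads, competitive displacement read by scintillation counting, IC50 derived from a one-site competition fit as a measure of receptor affinity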
T3 construct: expressed in transfected cells
T3 sequence (P30988 25-474): T1 sequence (P30988 25-474)

[4] = Table 6, human functional selectivity (hCTR EC50 / hAmylin-R EC50)
[5] = Table 6a, human functional selectivity (hCTR EC50 / hAmylin-R EC50), at least 5

SMILES | Ratio hCT/hAmylin funct. [1, 4] | Ratio hCT/hAmylin funct. [1, 5] | IC50 ([2]; human amylin receptor membranes, SPA, read-out: hAmylin-R bind IC50) | IC50 [3] | Ratio hCT/hAmylin binding [2] | Ratio hCT/hAmylin funct. ([1]; hCTR funct. EC50 divided by hAmylin-R funct. EC50)
CC(C)C[C@H](NC(=O)[C@H](CCCNC(=N)N)NC(=O)[C@H](CCC(N)=O)NC(=O)[C@@H](NC(=O)[C@H](C)NC(=O)[C@@H]1CSSC[C@H](NC(=O)[C@@H](N)CCCCNC(=O)CC[C@H](NC(=O)CC[C@H](NC(=O)CCCCCCCCCCCCCCCCCCC(=O)O)C(=O)O)C(=O)O)C(=O)N[C@@H](CC(N)=O)C(=O)N[C@@H]([C@@H](C)O)C(=O)N[C@@H](C)C(=O)N[C@@H]([C@@H](C)O)C(=O)N1)[C@@H](C)O)C(=O)N[C@@H](C)C(=O)N[C@@H](CC(=O)O)C(=O)N[C@@H](Cc1ccccc1)C(=O)N[C@@H](CC(C)C)C(=O)N[C@@H](CCCNC(=N)N)C(=O)N[C@@H](Cc1c[nH]cn1)C(=O)N[C@@H](CO)C(=O)N[C@@H](CO)C(=O)N[C@@H](CC(N)=O)C(=O)N1CCC[C@H]1C(=O)N[C@@H](Cc1ccccc1)C(=O)NCC(=O)N[C@@H](C)C(=O)N1CCC[C@H]1C(=O)N[C@@H](CC(C)C)C(=O)N[C@@H](CO)C(=O)N[C@@H](CO)C(=O)N[C@H](C(=O)N[C@@H](CC(N)=O)C(=O)N[C@H](C(=O)NCC(=O)N[C@@H](CO)C(=O)N[C@@H](CC(=O)O)C(=O)N[C@H](C(=O)N[C@@H](Cc1ccc(O)cc1)C(N)=O)[C@@H](C)O)C(C)C)[C@@H](C)O [Example 3] (H-K([γGlu-γGlu-C20 diacid])CNTATCATQRLADFLRHSSNPFGAPLSSTNVGSDTY-NH2; disulfide 2-7) | 6.7 | 6.7 | 1.13 nM | 19.5 nM | – | –
CC[C@H](C)[C@H](NC(=O)[C@H](C)NC(=O)CNC(=O)[C@H](Cc1ccccc1)NC(=O)[C@H](CC(N)=O)NC(=O)[C@@H]1CCCN1C(=O)[C@H](CO)NC(=O)[C@H](CO)NC(=O)[C@H](Cc1c[nH]cn1)NC(=O)[C@H](CCCNC(=N)N)NC(=O)[C@H](CC(C)C)NC(=O)[C@H](Cc1ccccc1)NC(=O)[C@H](CCC(=O)O)NC(=O)[C@H](C)NC(=O)[C@H](CC(C)C)NC(=O)[C@H](CCCNC(=N)N)NC(=O)[C@H](CCC(N)=O)NC(=O)[C@@H](NC(=O)[C@H](C)NC(=O)[C@@H]1CSSC[C@H](NC(=O)[C@H](CCCCN)NC(=O)CC[C@H](NC(=O)CCCCCCCCCCCCCCCCCCC(=O)O)C(=O)O)C(=O)N[C@@H](CC(N)=O)C(=O)N[C@@H]([C@@H](C)O)C(=O)N[C@@H](C)C(=O)N[C@@H]([C@@H](C)O)C(=O)N1)[C@@H](C)O)C(=O)N1CCC[C@H]1C(=O)N[C@@H](CO)C(=O)N[C@@H](CO)C(=O)N[C@H](C(=O)N[C@@H](CC(N)=O)C(=O)N[C@H](C(=O)NCC(=O)N[C@@H](CO)C(=O)N[C@@H](Cc1c[nH]cn1)C(=O)N[C@H](C(=O)N[C@@H](Cc1ccc(O)cc1)C(N)=O)[C@@H](C)O)C(C)C)[C@@H](C)O [Example 18] ({C20 diacid-γGlu}-KCNTATCATQRLAEFLRHSSPNFGAIPSSTNVGSHTY-NH2; disulfide 2-7) | 4.8 | – | – | – | 9.2 | –
CC[C@H](C)[C@H](NC(=O)[C@H](C)NC(=O)CNC(=O)[C@H](Cc1ccccc1)NC(=O)[C@H](CC(N)=O)NC(=O)[C@@H]1CCCN1C(=O)[C@H](CO)NC(=O)[C@H](CO)NC(=O)[C@H](Cc1c[nH]cn1)NC(=O)[C@H](CCCNC(=N)N)NC(=O)[C@H](CC(C)C)NC(=O)[C@H](Cc1ccccc1)NC(=O)[C@H](CCC(=O)O)NC(=O)[C@H](C)NC(=O)[C@H](CC(C)C)NC(=O)[C@H](CCCNC(=N)N)NC(=O)[C@H](CCC(N)=O)NC(=O)[C@@H](NC(=O)[C@H](C)NC(=O)[C@@H]1CSSC[C@H](NC(=O)[C@H](CCCCN)NC(=O)CC[C@H](NC(=O)CCCCCCCCCCCCCCCCCCC(=O)O)C(=O)O)C(=O)N[C@@H](CC(N)=O)C(=O)N[C@@H]([C@@H](C)O)C(=O)N[C@@H](C)C(=O)N[C@@H]([C@@H](C)O)C(=O)N1)[C@@H](C)O)C(=O)N[C@@H](CC(C)C)C(=O)N1CCC[C@H]1C(=O)N[C@@H](CO)C(=O)N[C@H](C(=O)N[C@@H](CC(N)=O)C(=O)N[C@H](C(=O)NCC(=O)N[C@@H](CO)C(=O)N[C@@H](CCC(=O)O)C(=O)N[C@H](C(=O)N[C@@H](Cc1ccc(O)cc1)C(N)=O)[C@@H](C)O)C(C)C)[C@@H](C)O [Example 33] ({C20 diacid-γGlu}-KCNTATCATQRLAEFLRHSSPNFGAILPSTNVGSETY-NH2; disulfide 2-7) | 2.2 | – | – | – | 3.9 | 2.2
CC[C@H](C)[C@H](NC(=O)[C@H](C)NC(=O)CNC(=O)[C@H](Cc1ccccc1)NC(=O)[C@H](CC(N)=O)NC(=O)[C@@H]1CCCN1C(=O)[C@H](CO)NC(=O)[C@H](CO)NC(=O)[C@H](Cc1c[nH]cn1)NC(=O)[C@H](CCCNC(=N)N)NC(=O)[C@H](CC(C)C)NC(=O)[C@H](Cc1ccccc1)NC(=O)[C@H](CCC(=O)O)NC(=O)[C@H](C)NC(=O)[C@H](CC(C)C)NC(=O)[C@H](CCCNC(=N)N)NC(=O)[C@H](CCC(N)=O)NC(=O)[C@@H](NC(=O)[C@H](C)NC(=O)[C@@H]1CSSC[C@H](NC(=O)[C@H](CCCCN)NC(=O)CC[C@H](NC(=O)CCCCCCCCCCCCCCCCCCC(=O)O)C(=O)O)C(=O)N[C@@H](CC(N)=O)C(=O)N[C@@H]([C@@H](C)O)C(=O)N[C@@H](C)C(=O)N[C@@H]([C@@H](C)O)C(=O)N1)[C@@H](C)O)C(=O)N1CCC[C@H]1C(=O)N[C@@H](CO)C(=O)N1CCC[C@H]1C(=O)N[C@H](C(=O)N[C@@H](CC(N)=O)C(=O)N[C@H](C(=O)NCC(=O)N[C@@H](CO)C(=O)N[C@@H](CC(N)=O)C(=O)N[C@H](C(=O)N[C@@H](Cc1ccc(O)cc1)C(N)=O)[C@@H](C)O)C(C)C)[C@@H](C)O [Example 37] ({C20 diacid-γGlu}-KCNTATCATQRLAEFLRHSSPNFGAIPSPTNVGSNTY-NH2; disulfide 2-7) | 4.0 | – | – | – | 2.3 | –
CC[C@H](C)[C@H](NC(=O)[C@H](C)NC(=O)CNC(=O)[C@H](Cc1ccccc1)NC(=O)[C@H](CC(N)=O)NC(=O)[C@H](CCCCNC(=O)CC[C@H](NC(=O)CC[C@H](NC(=O)CCCCCCCCCCCCCCCCCCC(=O)O)C(=O)O)C(=O)O)NC(=O)[C@H](CO)NC(=O)[C@H](CO)NC(=O)[C@H](Cc1c[nH]cn1)NC(=O)[C@H](CCCNC(=N)N)NC(=O)[C@H](CC(C)C)NC(=O)[C@H](Cc1ccccc1)NC(=O)[C@H](CC(=O)O)NC(=O)[C@H](C)NC(=O)[C@H](CC(C)C)NC(=O)[C@H](CCCNC(=N)N)NC(=O)[C@H](CCC(N)=O)NC(=O)[C@@H](NC(=O)[C@H](C)NC(=O)[C@@H]1CSSC[C@H](NC(=O)[C@@H](N)CCCCN)C(=O)N[C@@H](CC(N)=O)C(=O)N[C@@H]([C@@H](C)O)C(=O)N[C@@H](C)C(=O)N[C@@H]([C@@H](C)O)C(=O)N1)[C@@H](C)O)C(=O)N1CCC[C@H]1C(=O)N[C@@H](CO)C(=O)N[C@@H](CO)C(=O)N[C@H](C(=O)N[C@@H](CC(N)=O)C(=O)N[C@H](C(=O)NCC(=O)N[C@@H](CO)C(=O)N[C@@H](CC(=O)O)C(=O)N[C@H](C(=O)N[C@@H](Cc1ccc(O)cc1)C(N)=O)[C@@H](C)O)C(C)C)[C@@H](C)O [Example 59] (H-KCNTATCATQRLADFLRHSSK([γGlu-γGlu-C20 diacid])NFGAIPSSTNVGSDTY-NH2; disulfide 2-7; N-terminus assumed) | 5.0 | 5.0 | – | – | 4.3 | –
